For assay [1], the target named is T1, MtQAPRTase (Mycobacterium tuberculosis, UniProt P9WJJ7).
T1 sequence (P9WJJ7 1-285): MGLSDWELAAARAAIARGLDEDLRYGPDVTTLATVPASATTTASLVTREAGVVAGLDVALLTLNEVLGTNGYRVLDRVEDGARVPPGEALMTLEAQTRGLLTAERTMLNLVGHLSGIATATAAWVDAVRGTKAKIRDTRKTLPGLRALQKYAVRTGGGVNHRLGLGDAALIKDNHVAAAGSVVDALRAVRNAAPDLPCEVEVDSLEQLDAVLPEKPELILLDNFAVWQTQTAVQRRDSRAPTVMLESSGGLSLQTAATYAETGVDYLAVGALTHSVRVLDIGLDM

Assay [2] addresses T1, MtQAPRTase. Nature of the assay: PZA or POA added instead of QA or PRPP as substrate (HPLC). In kind it is biochemical, Mycobacterium tuberculosis H37Rv. Also noted: Full-length nadC from M. tuberculosis H37Rv was inserted into the expression vector pET-30a; made in house; host or cells: E. coli BL21 (DE3), pET-30a.
Assay [3] deals with T1, MtQAPRTase. The experiment in a line: Inhibition of MtQAPRTase activity by PZA/POA (HPLC quantification of NAMN). In kind it is biochemical, Mycobacterium tuberculosis H37Rv. Also noted: Full-length nadC from M. tuberculosis H37Rv was inserted into the expression vector pET-30a; made in house; host or cells: E. coli BL21 (DE3), pET-30a. As to conditions: for Ki: read-out: Ki estimated from IC50 by web-based tool.

For assay [4], the target named is T2, WT MtQAPRTase (Mycobacterium tuberculosis, UniProt P9WJJ7).
T2 sequence (P9WJJ7 1-285): T1 sequence (P9WJJ7 1-285)
The experiment in a line: Kinetic parameters of MtQAPRTase (spectrophotometric assay at 266 nm). In kind it is biochemical, Mycobacterium tuberculosis H37Rv.

Results on eleven compounds are retold here after paper PMC4065032, “Biochemical Characterization of Quinolinic Acid Phosphoribosyltransferase from Mycobacterium tuberculosis H37Rv and Inhibition of Its Activity by Pyrazinamide” (PLoS ONE, 2014).

“And” between values parts separate entries of the source, which are not always exact repeats. Equal values may be shown once. Read-outs that look alike come from different tables or passages of the source.

As to `[Ca+2].[Cl-].[Cl-]` [Ca^2+ (CaCl2), CaCl2], in assay [1], the “Relative Activity” value is recorded as 0% and the Specific activity came to 0 Unit/mg.
As to `[Cl-].[Cl-].[Co+2]` [Co^2+ (CoCl2), CoCl2], in assay [1], the “Relative Activity” value is given as 12% and the Specific activity came out at 0.15 Unit/mg.
For the compound `O=S(=O)([O-])[O-].[Cu+2]` [Cu^2+ (CuSO4), CuSO4], in assay [1], the “Relative Activity” value is 0% and the Specific activity amounted to 0 Unit/mg.
For `[Cl][Fe][Cl]` [Fe^2+ (FeCl2), FeCl2], in assay [1], the “Relative Activity” value is reported as 6% and the Specific activity was found to be 0.06 Unit/mg.
Regarding `[Cl-].[Cl-].[Mg+2]` [Mg^2+ (MgCl2), MgCl2], in assay [1], the “Relative Activity” value was found to be 100% and the Specific activity is listed as 1.32 Unit/mg.
The matching figures for `[Cl][Mn][Cl]` [Mn^2+ (MnCl2), MnCl2]: 27% and 0.35 Unit/mg.
As for `O=C(O)c1cnccn1` [POA, Pyrazinoic acid], in assay [2], the “Use as substrate by MtQAPRTase” value was “not substrates”. Also, in assay [3], the IC50 was 3450 µM and > 20000 µM. Further, in assay [3] (pH 7.2), the inhibition constant (Ki) was 175 µM.
For the compound `O=P(O)(O)OC[C@H]1O[C@H](OP(=O)(O)OP(=O)(O)O)[C@H](O)[C@@H]1O` [PRPP, 5-phosphoribosyl-1-pyrophosphate], the kcat in assay [4] (varied substrate, other substrate fixed (QA 0.3 mM or PRPP 1.0 mM), pH 7.2, 37°C) was 0.14 s⁻¹. Besides, in assay [4] (varied substrate, other substrate fixed (QA 0.3 mM or PRPP 1.0 mM), pH 7.2, 37°C, read-out: Km), the Km amounted to 390 µM.
In the case of `NC(=O)c1cnccn1` [PZA, Pyrazinamide], in assay [2], the “Use as substrate by MtQAPRTase” value is “not substrates”. The IC50 in assay [3] is 380 µM and 1370 µM. Moreover, the Ki in assay [3] (pH 6.2) was 69.4 µM; in assay [3] (pH 7.2), 19.2 µM.
In the case of `O=C(O)c1cccnc1C(=O)O` [QA, 2,3-pyridinedicarboxylic acid], in assay [4] (pH 7.2), the Km turned out to be 80 µM; the kcat is 0.12 s^-1 and 0.12.
With `[Cl-].[Cl-].[Zn+2]` [Zn^2+ (ZnCl2), ZnCl2], in assay [1], the “Relative Activity” value worked out at 0% and the Specific activity stood at 0 Unit/mg.

One may read the IC50 as the midpoint of a concentration-inhibition curve. Higher therefore signals lower potency. Broadly, the Ki is the equilibrium dissociation constant of an inhibitor or competing ligand from its target. Broadly, the kcat is the maximal rate divided by the concentration of active sites. By Km is commonly meant the substrate concentration at which the rate is half of its maximum.
